Entries after “also recorded” stand apart in the source; their conditions may differ.
What was measured:
A1 adenosine receptor [1] = molecular target: T1, A1 adenosine receptor (Cavia porcellus, UniProt P47745); test: Guinea pig isolated perfused heart: S-H interval, heart rate, atrial MAP; details: for effect on atrial monophasic action potential: FIG. 1 panel B; for effect on AV nodal conduction time (S-H interval) / second-degree AV block: FIG. 1 panel C; for effect on heart rate (chronotropic): spontaneously beating hearts, FIG. 1 panel A
T1 construct: The hearts were quickly removed and rinsed in ice-cold Krebs-Henseleit solution; from tissue; host or cells: guinea pig isolated perfused heart
T1 sequence (P47745 1-326): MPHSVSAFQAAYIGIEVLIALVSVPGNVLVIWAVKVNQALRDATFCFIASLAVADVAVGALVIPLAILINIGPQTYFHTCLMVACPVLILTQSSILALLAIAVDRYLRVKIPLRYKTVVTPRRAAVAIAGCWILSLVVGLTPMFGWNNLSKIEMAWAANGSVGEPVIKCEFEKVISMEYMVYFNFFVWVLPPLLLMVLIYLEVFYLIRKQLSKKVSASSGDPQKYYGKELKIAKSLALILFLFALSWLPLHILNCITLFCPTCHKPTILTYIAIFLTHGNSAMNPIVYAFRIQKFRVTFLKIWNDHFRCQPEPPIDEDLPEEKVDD
Description: Guinea pigs of either sex weighing 250-300 g were anesthetized with methoxyflurane and killed by cervical dislocation. The hearts were quickly removed and rinsed in ice-cold Krebs-Henseleit solution. The aorta was cannulated and the heart retrogradely perfused at a constant flow of 10 ml min^−1 with modified Krebs-Henseleit solution containing (mM): NaCL 117.9, KCl 4.8, CaCl2 2.5, MgSO4 1.18, KH2PO4 1.2, Na2EDTA 0.5, ascorbic acid 0.14, glucose 5.5, pyruvic acid (sodium salt) 2.0, and NaHCO3 25. The K—H solution was oxygenated with 95% oxygen and 5% CO2, pH 7.4, and temperature maintained at 36° C.
Hearts were electrically paced at a cycle length of 290-300 ms (unless otherwise indicated) using a bipolar electrode placed on the right atrium or ventricle. The stimulator, an interval generator (Model 1830, WPI, Sarasota, Fla., U.S.A.) delivered stimuli through a stimulus isolation unit (Model 1880, WPI) as square wave pulses of 3 ms in duration and at least twice the threshold intensity. The stimulus-to-His bundle (S—H) interval was used as index of AV nodal conduction time and was measured on-line during constant atrial pacing from microcomputer with a DT-208 1A interface board (Axon Instruments, Burlingame, Calif., U.S.A.) In experiments to study the chronotropic effect (effect on heart rate) of A1 AdoR agonists, the hearts were allowed to beat spontaneously. An atrial electrogram was used to record the electrical activity of the atria and to measure the heart rate.
Monophasic action potentials (MAP) were recorded using a pressure contact silver-silver chloride electrode (Langendorf Probe, EP Technologies, Inc., Sunnyvale, Calif., U.S.A.) placed on the surface of the left atrium. […] Signals were considered adequate if they were stable for at least 5 min and the amplitudes of the MAPs exceeded 10 mV. The data were digitized at 2 kHz by a DT-2801A digitizing board (Data Translation, Marlboro, Mass., U.S.A.) and stored using the Snapshot data acquisition program (Snapshot Storage Scope, HEM Data Corp., Southfield, Mich., U.S.A.) for later analysis. The duration of the atrial monophasic action potential was measured at 90% repolarization (MAPD90), using the Snapshot program. After completion of dissection and instrumentation, the hearts were allowed to equilibrate for 30 min before the experiments were begun. Whenever the baseline and post-intervention (washout) values differed by more than 15% the data were discarded. Approximately 60-70% of the experiments conformed with this criteria.

white adipocytes = details: cited from earlier work
A1 receptor [2] = molecular target: A1 receptor (Cavia porcellus, UniProt P47745); details: chronic administration for 7 days; cited from earlier work
A1 adenosine receptor [3] = molecular target: T2, A1 adenosine receptor (Mesocricetus auratus, UniProt A0A1U8BVR4); test: cAMP assay (SPA) in DDT1 cells, forskolin-induced cAMP; type: cell-based, hamster
T2 construct: endogenous in cells; host or cells: DDT1 (DDT1 MF-2) hamster vas deferens smooth muscle cells
T2 sequence (A0A1U8BVR4 1-326): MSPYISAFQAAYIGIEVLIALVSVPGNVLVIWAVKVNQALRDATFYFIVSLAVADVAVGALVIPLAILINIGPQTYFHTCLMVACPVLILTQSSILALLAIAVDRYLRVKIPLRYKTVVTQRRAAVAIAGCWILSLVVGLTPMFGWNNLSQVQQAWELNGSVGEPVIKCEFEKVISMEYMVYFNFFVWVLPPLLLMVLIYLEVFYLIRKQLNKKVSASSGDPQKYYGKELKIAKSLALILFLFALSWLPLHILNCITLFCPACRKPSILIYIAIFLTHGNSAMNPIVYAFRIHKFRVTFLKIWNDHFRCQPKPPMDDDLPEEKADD
Description: A scintillation proximity assay (SPA) using rabbit antibodies directed at cAMP using an added tracer of adenosine 3′,5′-cyclic phosphoric acid 2′-O-succinyl-3-[^125I]iodotyrosine methyl ester and fluoromicrospheres containing anti-rabbit specific antibodies as described by Amersham Pharmacia Biotech (Biotrak cellular communication assays). Briefly, DDT1 cells were cultured in clear bottomed 96 well microtiter plates with opaque wells at concentrations between 10^4 to 10^6 cells per well in 40 μl of HBSS at 37° C. (5% CO2 and 95% humidity). The partial or full A1 agonists (5 μl) of this invention were incubated at various concentrations with the DDT1 cells in the presence of rolipram (50 μM), and 5 μM forskolin for 10 min at 37° C. The cells were immediately lysed by treatment 5 μl of 10% dodecyltrirnethylammonium bromide followed by shaking using rnicroplate shaker. After incubation of the plate for 5 minutes, an imnuunoreagent solution (150 μl containing equal volumes of tracer, antiserum, and SPA fluorospheres) was added to each well followed by sealing the plate. After 15-20 h at 23° C., the amount of bound [^125] cAM to the fluoromicrospheres was determined by counting in a microtitre plate scintillation counter for 2 minutes. Comparison of counts with standard curves generated for cAMP using a similar protocol afforded the cAMP present after cell lysis.

[4] = seizures induced by DMCM; cited from earlier work
A1 receptor [5] = molecular target: T3, A1 receptor (Oryctolagus cuniculus, UniProt P34970); details: administered prior to ischemia; cited from earlier work
T3 construct: a rabbit ischemia model wherein 2-chloro-N6-cyclopentyladenosine (CCPA) and R-PIA were administered prior to ischemia; host or cells: rabbit in vivo
T3 sequence (P34970 1-328): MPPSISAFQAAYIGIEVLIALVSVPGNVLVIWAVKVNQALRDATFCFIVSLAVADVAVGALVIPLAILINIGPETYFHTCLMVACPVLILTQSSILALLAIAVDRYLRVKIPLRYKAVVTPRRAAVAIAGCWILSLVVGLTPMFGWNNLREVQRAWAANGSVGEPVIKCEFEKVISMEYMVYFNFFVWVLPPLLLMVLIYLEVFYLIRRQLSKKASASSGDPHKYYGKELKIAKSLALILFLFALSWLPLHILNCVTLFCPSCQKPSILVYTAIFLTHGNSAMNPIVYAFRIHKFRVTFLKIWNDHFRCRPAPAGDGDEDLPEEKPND

SMILES	effect on atrial monophasic action potential (A1 adenosine receptor [1])	effect on AV nodal conduction time (S-H interval) (A1 adenosine receptor [1])	second-degree AV block (A1 adenosine receptor [1])	effect on heart rate (chronotropic) (A1 adenosine receptor [1])	further results
O=c1[nH]c(=O)c2[nH]c(C3CCCC3)nc2[nH]1 [CPX, 8-cyclopentylxanthine]					antagonism of S-H interval prolongation caused by Compound 6 (A1 adenosine receptor [1]; CPX 50 nM, cycle length 300 msec, FIG. 2): significant (P<0.05); also recorded: antagonizes the prolongation of S—H interval caused by compound 6
C[C@H](Cc1ccccc1)Nc1ncnc2c1ncn2[C@@H]1O[C@H](CO)[C@@H](O)[C@H]1O [R-PIA, R-N6-phenylisopropyladenosine]					leptin release (white adipocytes): increase the leptin released from white adipocytes; desensitization of A1 receptor (dromotropic response) (A1 receptor [2]): led to a desensitization
OC[C@H]1O[C@@H](n2cnc3c(NC4CCCC4)ncnc32)[C@H](O)[C@@H]1O [CPA, N-6-cyclopentyladenosine]	shortened the monophasic atrial action potential	prolonged the S—H interval	caused second-degree AV block	slowed heart rate	second degree AV block (A1 adenosine receptor [1]; 30 nM CPA, four hearts): Second degree AV block occurred in all hearts; effect on forskolin induced cAMP generation (A1 adenosine receptor [3]; DDT1 cells): diminished the amount of forskolin induced cAMP generation back to basal levels; cAMP (A1 adenosine receptor [3]; normalized to full agonist CPA, 5 μM forskolin, 50 μM rolipram): 100%
Cc1ccccc1CNc1ncnc2c1ncn2[C@@H]1O[C@H](CO)[C@@H](O)[C@H]1O [metrifudil]					anticonvulsant activity [4]: potent anticonvulsant
OC[C@H]1O[C@@H](n2cnc3c(NC4CCCC4)nc(Cl)nc32)[C@H](O)[C@@H]1O [CCPA, 2-chloro-N6-cyclopentyladenosine]	shortened the monophasic atrial action potential	prolonged the S—H interval	caused second-degree AV block	slowed heart rate	protection with respect to infarct size (A1 receptor [5]): providing protection with respect to infarct size

— patent US20020037872A1, “N6 heterocyclic 5' modified adenosine derivatives” (CV Therapeutics, Inc., priority 1999, published 2002)
